Data from patent publication US20240150286A1, “PEROXISOME PROLIFERATOR-ACTIVATED RECEPTOR GAMMA (PPARy) LIGANDS AND METHODS OF USE AS TREATMENTS FOR INSULIN RESISTANCE, OBESITY, FATTY LIVER DISEASE, AND TYPE 2 DIABETES” (The Board of Regents of the University of Oklahoma, priority 2022, published 2024).

Tests used:
[1] = molecular target: T1, PPARγ ligand-binding domain (LBD) (Homo sapiens, UniProt P37231); test: In vitro competition binding assay (PolarScreen PPARγ-Competitor, fluorescence polarization)
T1 construct: purchased Thermo Fisher Scientific
T1 sequence (P37231 238-503 limits assumed): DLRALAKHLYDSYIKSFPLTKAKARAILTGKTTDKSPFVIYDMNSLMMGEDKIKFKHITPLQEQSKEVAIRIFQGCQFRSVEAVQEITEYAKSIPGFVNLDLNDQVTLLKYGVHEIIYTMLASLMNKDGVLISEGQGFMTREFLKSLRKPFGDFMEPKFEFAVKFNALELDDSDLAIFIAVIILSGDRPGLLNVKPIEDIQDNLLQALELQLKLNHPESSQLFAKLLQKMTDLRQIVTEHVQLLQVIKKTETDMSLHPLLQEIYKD
Method: The in vitro competition binding assays was performed using PolarScreen™ PPARγ-Competitor Assay Kit according to the manufacturer's instructions. Briefly, compounds at 2-fold titration serial concentrations were incubated with GST-tagged PPARγ ligand-binding domain (LBD, 34 nM) and Fluormone PPAR Green tracer (9 nM) for 4 hours in the dark at room temperature in a black 384-well assay plate (Corning Glass cat. no. 677). The florescence polarization value (mP) was measured at 485 nm (excitation) and at 535 nm (emission) using a microplate reader.

[2] = system: PPARγ S273 phosphorylation; test: PPARγ S273 phosphorylation and phosphorylation-dependent genes in 3T3-L1 differentiated adipocytes; type: cell-based, mouse
Method: Total RNA (2 μg) was isolated from tissues or cells using TRIzol reagents (Life Technologies) and reverse transcribed using oligo d(T) primers (New England Biosystems) and SuperScript IV reverse transcription kit (Applied Biosystems). qPCR was performed in a CFX96 Touch Real-Time PCR detection system using SYBR Green mix (Applied Biosystems). The amplification program was as follows: initial denaturation at 95° C. for 15 min, followed by 40 cycles of 95° C. for 15 s, 60° C. for 1 min, and 40° C. for 30 s. Relative mRNA expression was determined by the ΔΔCt method normalized to TBP mRNA.

Cc1c(C)n(Cc2ccc(-c3ccccc3C(=O)O)cc2)c2ccc(C(=O)NCc3cccc(O)c3)cc12 [WO95E, 4′-((5-((3-hydroxybenzyl)carbamoyl)-2,3-dimethyl-1H-indol-1-yl)methyl)-[1,1′-biphenyl]-2-carboxylic acid]
IC50 fold lower than that of UHC1 ([1]; WO95E vs UHC1): approximately 70 fold
IC50 ([1]; competition with Fluormone PPAR Green tracer, GST-PPARγ LBD 34 nM, read-out: half-maximum inhibitory concentration (IC50), binding to PPARγ LBD): ~11 nM
mRNA levels of PPARγ phosphorylation-dependent genes (adiponectin, cycp2f2, Ddx-17, Rarres2, Selenbp1) ([2]; 3T3-L1, 10 μM, qRT-PCR): upregulation
S273 phosphorylation of PPARγ ([2]; 3T3-L1 differentiated adipocytes, TNFα 10 ng/ml 1 h, compounds at 10 μM, Western blot): significantly inhibited
